{"source": "ChEMBL document CHEMBL1687706", "about": "“Inhibition of human immunodeficiency virus type 1 replication in human cells by Debio-025, a novel cyclophilin binding agent” (Antimicrob Agents Chemother, 2008)", "key": {"Influenza A virus [1]": {"system": "Influenza A virus", "assay": "Antiviral activity against Influenza A virus H1N1 infected in MDCK cells assessed as inhibition of viral replication", "type": "functional, organism-based"}, "Human alphaherpesvirus 2 [2]": {"system": "Human alphaherpesvirus 2", "assay": "Antiviral activity against Herpes simplex virus 2 G infected in human embryonic lung cells assessed as inhibition of viral replication", "type": "functional, organism-based", "conditions": "Human alphaherpesvirus 2, strain G"}, "Hepatitis C virus": {"system": "Hepatitis C virus", "assay": "Antiviral activity against HCV infected in human Huh 5.2 cells assessed as reduction in viral RNA level by luciferase reporter gene assay", "type": "functional, organism-based, Hepacivirus hominis", "conditions": "Huh-5-2"}, "[3]": {"system": "Human papillomavirus type 16", "assay": "Antiviral activity against HPV-16 infected in Caski cells assessed as inhibition of viral replication after 7 days", "type": "functional, Human papillomavirus 16"}, "Human alphaherpesvirus 1 [4]": {"system": "Human alphaherpesvirus 1", "assay": "Antiviral activity against Herpes simplex virus 1 F infected in human embryonic lung cells assessed as inhibition of viral replication", "type": "functional, organism-based", "conditions": "Human alphaherpesvirus 1, strain F"}, "Yellow fever virus": {"system": "Yellow fever virus", "assay": "Antiviral activity against Yellow fever virus 17D infected in african green monkey Vero cells assessed as inhibition of viral replication", "type": "functional, cell-based"}, "[5]": {"system": "Human immunodeficiency virus 1", "conditions": "Human immunodeficiency virus 1, 3B"}, "[6]": {"system": "Human immunodeficiency virus 1", "assay": "microbe, parasite or virus in culture", "conditions": "Human immunodeficiency virus 1, 3B, MT4"}, "Human alphaherpesvirus 1 [7]": {"system": "Human alphaherpesvirus 1", "assay": "Antiviral activity against Herpes simplex virus 1 McIntyre infected in human embryonic lung cells assessed as inhibition of viral replication", "type": "functional, organism-based", "conditions": "Human alphaherpesvirus 1, McIntyre"}, "Rattus norvegicus [8]": {"system": "Rattus norvegicus", "assay": "Immunosuppressive activity in Sprague-Dawley rat […] model assessed as percent T-helper cells at 10 mg/kg, po administered once daily for 28 days by flow cytometry", "type": "functional"}, "[9]": {"system": "Human papillomavirus type 16", "assay": "Antiviral activity against HPV-16 infected in Caski cells assessed as inhibition of viral replication after 3 days", "type": "functional, organism-based, Human papillomavirus 16", "conditions": "Human papillomavirus 16, Ca-Ski, 72 h"}, "Influenza B virus": {"system": "Influenza B virus", "assay": "Antiviral activity against influenza B virus infected in MDCK cells assessed as inhibition of viral replication", "type": "functional, organism-based"}, "Influenza A virus [10]": {"system": "Influenza A virus", "assay": "Antiviral activity against Influenza A virus H3N2 infected in MDCK cells assessed as inhibition of viral replication", "type": "functional, organism-based"}, "[11]": {"system": "Human immunodeficiency virus 1", "assay": "microbe, parasite or virus in culture", "conditions": "Human immunodeficiency virus 1, SF2"}, "[12]": {"system": "Bovine viral diarrhea virus 1", "assay": "Antiviral activity against BVDV infected in […] cells assessed as inhibition of viral replication", "type": "functional, organism-based", "conditions": "Bovine viral diarrhea virus isolates and strains"}, "Human betaherpesvirus 5 [13]": {"system": "Human betaherpesvirus 5", "assay": "Antiviral activity against Human cytomegalovirus AD169 infected in human embryonic lung cells assessed as reduction in viral yield", "type": "functional, organism-based", "conditions": "Human betaherpesvirus 5, AD169, lung"}, "SARS-CoV": {"system": "SARS-CoV", "assay": "Antiviral activity against SARS coronavirus infected in african green monkey Vero cells assessed as inhibition of viral replication", "type": "functional, organism-based", "conditions": "Severe acute respiratory syndrome-related coronavirus"}, "Vaccinia virus": {"system": "Vaccinia virus", "assay": "Antiviral activity against Vaccinia virus infected in human embryonic lung cells assessed as reduction in viral yield measured after 3 days", "type": "functional, organism-based", "conditions": "Orthopoxvirus vaccinia, 72 h"}, "Human alphaherpesvirus 2 [14]": {"system": "Human alphaherpesvirus 2", "assay": "Antiviral activity against Herpes simplex virus 2 Lyons infected in human embryonic lung cells assessed as inhibition of viral replication", "type": "functional, organism-based", "conditions": "Human alphaherpesvirus 2, Lyons"}, "Human alphaherpesvirus 3": {"system": "Human alphaherpesvirus 3", "assay": "Antiviral activity against VZV OKA infected in human embryonic lung cells assessed as inhibition of", "type": "functional, organism-based", "conditions": "Human alphaherpesvirus 3, OKA"}, "[15]": {"system": "Human respiratory syncytial virus", "assay": "Antiviral activity against RSV infected in human HeLa cells assessed as inhibition of viral replication"}, "Rattus norvegicus [16]": {"system": "Rattus norvegicus", "assay": "Immunosuppressive activity in Sprague-Dawley rat […] model assessed as IgM level at 10 mg/kg, po administered once daily for 28 days by ELISA", "type": "functional"}, "Rattus norvegicus [17]": {"system": "Rattus norvegicus", "assay": "Immunosuppressive activity in Sprague-Dawley rat KHL model assessed as percent cytotoxic T cells at 10 mg/kg, po administered once daily for 28 days by flow cytometry", "type": "functional, T-cell"}, "Coxsackievirus": {"system": "Coxsackievirus", "assay": "Antiviral activity against Coxsackie B3 infected in african green monkey Vero cells assessed as inhibition of viral replication", "type": "functional, organism-based"}, "Human alphaherpesvirus 1 [18]": {"system": "Human alphaherpesvirus 1", "assay": "Antiviral activity against Herpes simplex virus 1 KOS infected in human embryonic lung cells assessed as inhibition of viral replication", "type": "functional, organism-based", "conditions": "Human alphaherpesvirus 1, KOS"}, "[19]": {"system": "Vesicular stomatitis virus", "assay": "Antiviral activity against VSV infected in human embryonic lung cells assessed as inhibition of viral replication", "type": "functional, organism-based"}, "Human alphaherpesvirus 2 [20]": {"system": "Human alphaherpesvirus 2", "assay": "Antiviral activity against Herpes simplex virus 2 196 infected in human embryonic lung cells assessed as inhibition of viral replication", "type": "functional, organism-based", "conditions": "Human alphaherpesvirus 2, 196, lung"}, "Human betaherpesvirus 5 [21]": {"system": "Human betaherpesvirus 5", "assay": "Antiviral activity against Human cytomegalovirus Davis infected in human embryonic lung cells assessed as reduction in viral yield", "type": "functional, organism-based", "conditions": "Human betaherpesvirus 5, Davis"}, "Feline coronavirus": {"system": "Feline coronavirus", "assay": "Antiviral activity against Feline coronavirus infected in CRFK assessed as inhibition of viral replication", "type": "functional, organism-based", "conditions": "Alphacoronavirus 1, CRFK"}, "Rattus norvegicus [22]": {"system": "Rattus norvegicus", "assay": "Immunosuppressive activity in Sprague-Dawley rat […] model assessed as percent T lymphocytes at 10 mg/kg, po administered once daily for 28 days by flow cytometry", "type": "functional"}, "MT4": {"system": "MT4", "assay": "Cytotoxicity against human MT4 cells at 0.83 uM by MTT assay", "type": "cell-based", "conditions": "mt4, 0.83 µM"}, "PBMC": {"system": "PBMC", "assay": "Cytotoxicity against human PBMC at 0.83 uM by MTT assay", "type": "cell-based"}, "Jurkat": {"system": "Jurkat", "assay": "Immunosuppressive activity in human Jurkat cells assessed as inhibition of PHA-phorbol myristate acetate induced beta-galactosidase activity at 6.75 uM", "type": "functional, cell-based"}}, "note": "Active and inactive are the calls of the source. No cut-off for these calls is given here.", "data": [{"smiles": "C/C=C/C[C@@H](C)[C@@H](O)[C@H]1C(=O)N[C@@H](CC)C(=O)N(C)CC(=O)N(C)[C@@H](CC(C)C)C(=O)N[C@@H](C(C)C)C(=O)N(C)[C@@H](CC(C)C)C(=O)N[C@@H](C)C(=O)N[C@H](C)C(=O)N(C)[C@@H](CC(C)C)C(=O)N(C)[C@@H](CC(C)C)C(=O)N(C)[C@@H](C(C)C)C(=O)N1C", "note": "[CYCLOSPORINE]", "values": [{"measurement": "IC50", "setting": "Influenza A virus [1]", "value": "> 14.8", "unit": "µM"}, {"measurement": "IC50", "setting": "Human alphaherpesvirus 2 [2]", "value": "> 8.3", "unit": "µM"}, {"measurement": "IC50", "setting": "Hepatitis C virus", "value": 2.3, "unit": "µM"}, {"measurement": "TC50", "setting": "[3]", "value": 0.3, "unit": "µM"}, {"measurement": "IC50", "setting": "Human alphaherpesvirus 1 [4]", "value": "> 8.3", "unit": "µM"}, {"measurement": "IC50", "setting": "Yellow fever virus", "value": "> 16.6", "unit": "µM"}, {"measurement": "IC50", "setting": "[5]", "value": 0.45, "unit": "µM"}, {"measurement": "IC50", "setting": "[6]", "value": "> 0.83", "unit": "µM"}, {"measurement": "IC50", "setting": "Human alphaherpesvirus 1 [7]", "value": "> 8.3", "unit": "µM"}, {"measurement": "Activity", "setting": "Rattus norvegicus [8]", "value": 23.1, "unit": "%"}, {"measurement": "IC50", "setting": "[9]", "value": 0.4, "unit": "µM"}, {"measurement": "IC50", "setting": "Influenza B virus", "value": "> 14.8", "unit": "µM"}, {"measurement": "IC50", "setting": "Influenza A virus [10]", "value": "> 14.8", "unit": "µM"}, {"measurement": "IC50", "setting": "[11]", "value": 0.54, "unit": "µM"}, {"measurement": "IC50", "setting": "[12]", "value": "> 9.9", "unit": "µM"}, {"measurement": "IC50", "setting": "Human betaherpesvirus 5 [13]", "value": "> 18.3", "unit": "µM"}, {"measurement": "IC50", "setting": "SARS-CoV", "value": "> 8.3", "unit": "µM"}, {"measurement": "IC50", "setting": "Vaccinia virus", "value": "> 8.3", "unit": "µM"}, {"measurement": "IC50", "setting": "Human alphaherpesvirus 2 [14]", "value": "> 8.3", "unit": "µM"}, {"measurement": "IC50", "setting": "Human alphaherpesvirus 3", "value": 3.3, "unit": "µM"}, {"measurement": "IC50", "setting": "[15]", "value": "> 8.3", "unit": "µM"}, {"measurement": "deltaA", "setting": "Rattus norvegicus [16]", "value": 0.18}, {"measurement": "Activity", "setting": "Rattus norvegicus [17]", "value": 9.2, "unit": "%"}, {"measurement": "IC50", "setting": "Coxsackievirus", "value": "> 25", "unit": "µM"}, {"measurement": "IC50", "setting": "Human alphaherpesvirus 1 [18]", "value": "> 8.3", "unit": "µM"}, {"measurement": "IC50", "setting": "[19]", "value": "> 8.3", "unit": "µM"}, {"measurement": "IC50", "setting": "Human alphaherpesvirus 2 [20]", "value": "> 8.3", "unit": "µM"}, {"measurement": "IC50", "setting": "Human betaherpesvirus 5 [21]", "value": "> 18.3", "unit": "µM"}, {"measurement": "IC50", "setting": "Feline coronavirus", "value": 1.5, "unit": "µM"}, {"measurement": "Activity", "setting": "Rattus norvegicus [22]", "value": 33.6, "unit": "%"}]}, {"smiles": "C/C=C/C[C@@H](C)[C@@H](O)[C@H]1C(=O)N[C@@H](CC)C(=O)N(C)CC(=O)N(C)[C@@H]([C@@H](C)CC)C(=O)N[C@@H](C(C)C)C(=O)N(C)[C@@H](CC(C)C)C(=O)N[C@@H](C)C(=O)N[C@H](C)C(=O)N(C)[C@@H](CC(C)C)C(=O)N(C)[C@@H](CC(C)C)C(=O)N(C)[C@@H](C(C)C)C(=O)N1C", "note": "[NIM811]", "values": [{"measurement": "IC50", "setting": "[5]", "value": 0.47, "unit": "µM"}, {"measurement": "IC50", "setting": "[6]", "value": 0.31, "unit": "µM"}, {"measurement": "Activity", "setting": "MT4", "value": "Non-toxic"}, {"measurement": "IC50", "setting": "[11]", "value": 0.5, "unit": "µM"}, {"measurement": "Activity", "setting": "PBMC", "value": "Non-toxic"}, {"measurement": "inhibition", "setting": "Jurkat", "value": "Active"}]}]}
